Measured values taken from patent US8598365B2, “Herbicides” (Syngenta Limited, priority 2007, dated 2013).

Columns and labels:
Type in all cases: in vivo
Avena fatua (AVEFA) [1] = assay: Example B post-emergence herbicidal activity; settings: 312 h, rate 250 g/ha, evaluated after 13 days, read-out: Post-emergence activity AVEFA (100=total damage to plant; 0=no damage to plant)
In short: (§1)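 Glasshouse pot test, 24/16 °C, 14 h light, 65% RH, watered twice daily. Spray timing: day 1 pre-em., day 8 post-em.; vehicle acetone/water 50:50 + 0.5% Tween 20. Readout 13 d, 0–100% damage.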

[2] = tested on: Amaranthus retoflexus (AMARE); assay: Example B post-emergence herbicidal activity; settings: Amaranthus retroflexus, 312 h, rate 250 g/ha, evaluated after 13 days, read-out: Post-emergence activity AMARE (100=total damage to plant; 0=no damage to plant)
In short: as §1

Setaria faberi (SETFA) [3] = assay: Example B post-emergence herbicidal activity; settings: 312 h, rate 250 g/ha, evaluated after 13 days, read-out: Post-emergence activity SETFA (100=total damage to plant; 0=no damage to plant)
In short: as §1

[4] = tested on: Alopecurus myosuroides (ALOMY); assay: Example B post-emergence herbicidal activity; settings: 312 h, rate 250 g/ha, evaluated after 13 days, read-out: Post-emergence activity ALOMY (100=total damage to plant; 0=no damage to plant)
In short: as §1

[5] = tested on: Echinochloa crus-galli (ECHCG); assay: Example B post-emergence herbicidal activity; settings: 312 h, rate 250 g/ha, evaluated after 13 days, read-out: Post-emergence activity ECHCG (100=total damage to plant; 0=no damage to plant)
In short: as §1

Avena fatua (AVEFA) [6] = assay: Example B pre-emergence herbicidal activity; settings: 312 h, rate 250 g/ha, evaluated after 13 days, read-out: Pre-Emergence Activity AVEFA (100=total damage to plant; 0=no damage to plant)
In short: as §1

[7] = tested on: Amaranthus retoflexus (AMARE); assay: Example B pre-emergence herbicidal activity; settings: Amaranthus retroflexus, 312 h, rate 250 g/ha, evaluated after 13 days, read-out: Pre-Emergence Activity AMARE (100=total damage to plant; 0=no damage to plant)
In short: as §1

Setaria faberi (SETFA) [8] = assay: Example B pre-emergence herbicidal activity; settings: 312 h, rate 250 g/ha, evaluated after 13 days, read-out: Pre-Emergence Activity SETFA (100=total damage to plant; 0=no damage to plant)
In short: as §1

[9] = tested on: Alopecurus myosuroides (ALOMY); assay: Example B pre-emergence herbicidal activity; settings: 312 h, rate 250 g/ha, evaluated after 13 days, read-out: Pre-Emergence Activity ALOMY (100=total damage to plant; 0=no damage to plant)
In short: as §1

[10] = tested on: Echinochloa crus-galli (ECHCG); assay: Example B pre-emergence herbicidal activity; settings: 312 h, rate 250 g/ha, evaluated after 13 days, read-out: Pre-Emergence Activity ECHCG (100=total damage to plant; 0=no damage to plant)
In short: as §1

## Cc1cnc(-c2ccc(Cl)cc2)nc1C1C(=O)[C@@H]2CC[C@@H](C2)C1=O (some centres unmarked) [Compound T88]
Avena fatua (AVEFA) [1]
  pest or weed control at 250 g/ha: 0%
[2]
  pest or weed control at 250 g/ha: 0%
Setaria faberi (SETFA) [3]
  pest or weed control at 250 g/ha: 70%
[4]
  pest or weed control at 250 g/ha: 10%
[5]
  pest or weed control at 250 g/ha: 90%
Avena fatua (AVEFA) [6]
  pest or weed control at 250 g/ha: 0%
[7]
  pest or weed control at 250 g/ha: 0%
Setaria faberi (SETFA) [8]
  pest or weed control at 250 g/ha: 80%
[9]
  pest or weed control at 250 g/ha: 0%
[10]
  pest or weed control at 250 g/ha: 60%

## CCc1sc(-c2ccc(Cl)cc2)nc1C1=C(OC(=C(C#N)C#N)C(F)(F)F)[C@@H]2CC[C@@H](C2)C1=O [Compound P9]
Avena fatua (AVEFA) [1]
  pest or weed control at 250 g/ha: 100%
[2]
  pest or weed control at 250 g/ha: 0%
Setaria faberi (SETFA) [3]
  pest or weed control at 250 g/ha: 100%
[4]
  pest or weed control at 250 g/ha: 100%
[5]
  pest or weed control at 250 g/ha: 100%
Avena fatua (AVEFA) [6]
  pest or weed control at 250 g/ha: 100%
[7]
  pest or weed control at 250 g/ha: 0%
Setaria faberi (SETFA) [8]
  pest or weed control at 250 g/ha: 100%
[9]
  pest or weed control at 250 g/ha: 90%
[10]
  pest or weed control at 250 g/ha: 90%

## CCc1sc(-c2ccc(SC)cc2)nc1C1C(=O)[C@@H]2CC[C@@H](C2)C1=O (some centres unmarked) [Compound T83]
Avena fatua (AVEFA) [1]
  pest or weed control at 250 g/ha: 100%
[2]
  pest or weed control at 250 g/ha: 0%
Setaria faberi (SETFA) [3]
  pest or weed control at 250 g/ha: 100%
[4]
  pest or weed control at 250 g/ha: 60%
[5]
  pest or weed control at 250 g/ha: 100%
Avena fatua (AVEFA) [6]
  pest or weed control at 250 g/ha: 0%
[7]
  pest or weed control at 250 g/ha: 0%
Setaria faberi (SETFA) [8]
  pest or weed control at 250 g/ha: 90%
[9]
  pest or weed control at 250 g/ha: 50%
[10]
  pest or weed control at 250 g/ha: 100%

## CCc1sc(-c2ccc(C(F)(F)F)cc2)nc1C1C(=O)[C@@H]2CC[C@@H](C2)C1=O (some centres unmarked) [Compound T96]
Avena fatua (AVEFA) [1]
  pest or weed control at 250 g/ha: 100%
[2]
  pest or weed control at 250 g/ha: 30%
Setaria faberi (SETFA) [3]
  pest or weed control at 250 g/ha: 100%
[4]
  pest or weed control at 250 g/ha: 100%
[5]
  pest or weed control at 250 g/ha: 100%
Avena fatua (AVEFA) [6]
  pest or weed control at 250 g/ha: 100%
[7]
  pest or weed control at 250 g/ha: 0%
Setaria faberi (SETFA) [8]
  pest or weed control at 250 g/ha: 100%
[9]
  pest or weed control at 250 g/ha: 80%
[10]
  pest or weed control at 250 g/ha: 100%

## CCc1sc(-c2ccc(Cl)cc2)nc1C1=C(OC(=O)C(C)(C)C)C2CCC(C2)C1=O (centres unmarked) [Compound P2, 2,2-dimethylpropionic acid 3-[2-(4-chloro-phenyl)-5-ethylthiazol-4-yl]-4-oxobicyclo[3.2.1]oct-2-en-2-yl ester]
Avena fatua (AVEFA) [1]
  pest or weed control at 250 g/ha: 100%
[2]
  pest or weed control at 250 g/ha: 0%
Setaria faberi (SETFA) [3]
  pest or weed control at 250 g/ha: 100%
[4]
  pest or weed control at 250 g/ha: 100%
[5]
  pest or weed control at 250 g/ha: 100%
Avena fatua (AVEFA) [6]
  pest or weed control at 250 g/ha: 40%
[7]
  pest or weed control at 250 g/ha: 0%
Setaria faberi (SETFA) [8]
  pest or weed control at 250 g/ha: 100%
[9]
  pest or weed control at 250 g/ha: 80%
[10]
  pest or weed control at 250 g/ha: 100%

## CC(=O)OC1=C(c2nc(-c3ccc(Br)cc3C)sc2C)C(=O)[C@H]2CC[C@@H]1C2 [Compound P12]
Avena fatua (AVEFA) [1]
  pest or weed control at 250 g/ha: 90%
[2]
  pest or weed control at 250 g/ha: 0%
Setaria faberi (SETFA) [3]
  pest or weed control at 250 g/ha: 100%
[4]
  pest or weed control at 250 g/ha: 100%
[5]
  pest or weed control at 250 g/ha: 100%
Avena fatua (AVEFA) [6]
  pest or weed control at 250 g/ha: 20%
[7]
  pest or weed control at 250 g/ha: 0%
Setaria faberi (SETFA) [8]
  pest or weed control at 250 g/ha: 100%
[9]
  pest or weed control at 250 g/ha: 30%
[10]
  pest or weed control at 250 g/ha: 20%

## Cc1sc(-c2ccc(Cl)c(C(F)(F)F)c2)nc1C1=C(OC(=O)C(C)(C)C)[C@H]2CC[C@H](C2)C1=O [Compound P4]
Avena fatua (AVEFA) [1]
  pest or weed control at 250 g/ha: 0%
[2]
  pest or weed control at 250 g/ha: 0%
Setaria faberi (SETFA) [3]
  pest or weed control at 250 g/ha: 80%
[4]
  pest or weed control at 250 g/ha: 20%
[5]
  pest or weed control at 250 g/ha: 80%
Avena fatua (AVEFA) [6]
  pest or weed control at 250 g/ha: 0%
[7]
  pest or weed control at 250 g/ha: 40%
Setaria faberi (SETFA) [8]
  pest or weed control at 250 g/ha: 90%
[9]
  pest or weed control at 250 g/ha: 0%
[10]
  pest or weed control at 250 g/ha: 0%

## CCc1sc(-c2ccc(OC)c(F)c2)nc1C1C(=O)[C@@H]2CC[C@@H](C2)C1=O (some centres unmarked) [Compound T111]
Avena fatua (AVEFA) [1]
  pest or weed control at 250 g/ha: 100%
[2]
  pest or weed control at 250 g/ha: 0%
Setaria faberi (SETFA) [3]
  pest or weed control at 250 g/ha: 100%
[4]
  pest or weed control at 250 g/ha: 100%
[5]
  pest or weed control at 250 g/ha: 100%
Avena fatua (AVEFA) [6]
  pest or weed control at 250 g/ha: 90%
[7]
  pest or weed control at 250 g/ha: 0%
Setaria faberi (SETFA) [8]
  pest or weed control at 250 g/ha: 80%
[9]
  pest or weed control at 250 g/ha: 50%
[10]
  pest or weed control at 250 g/ha: 100%
